Test results: the SangsterLogP compilation

Test: method code G-GLC, from DOI: 10.1021/je0101909

| SMILES | logP |
| --- | --- |
| Clc1cc(-c2ccc(Cl)c(Cl)c2Cl)cc(Cl)c1Cl | 6.73 |
| Clc1ccc(-c2cc(Cl)c(Cl)c(Cl)c2Cl)cc1Cl | 6.75 |
| Clc1cc(-c2cc(Cl)c(Cl)c(Cl)c2)cc(Cl)c1Cl | 7.01 |
| Clc1cc(Cl)c(-c2cc(Cl)c(Cl)c(Cl)c2)cc1Cl | 6.82 |
| Clc1ccc(-c2cc(Cl)c(Cl)c(Cl)c2)cc1Cl | 6.56 |
| Clc1ccc(-c2cc(Cl)c(Cl)c(Cl)c2)c(Cl)c1 | 6.5 |
| Clc1cc(-c2cc(Cl)c(Cl)c(Cl)c2Cl)cc(Cl)c1Cl | 7.15 |
| Clc1ccc(-c2ccc(Cl)c(Cl)c2Cl)cc1Cl | 6.61 |
| Clc1ccc(-c2cc(Cl)c(Cl)cc2Cl)cc1Cl | 6.49 |
| Clc1ccc(-c2cc(Cl)c(Cl)c(Cl)c2)cc1 | 6.53 |
| Clc1ccc(-c2cc(Cl)c(Cl)c(Cl)c2Cl)cc1 | 6.47 |
